The nature of data set [1]: Chrome azurol S (CAS) agar plate siderophore zone test for Fe-binding. To be noted: 200 μL of 0.2 mM compound solution in Oxford cup, let stand for 3 h. Here is the method:
Chrome azurol S (CAS) agar plate, namely the siderophore screening medium consisting of 1 mL of 20% glucose solution, 3 mL of 10% casein, 100 μL of 1 mmoL/L CaCl2), 2 mL of 1 mmoL/L MgSO4, 100 mL of H2O, and 1.8 g of agar, was heated, and supplemented with 5 mL each of CAS dye solution and phosphate buffered saline (PBS) at 60° C. slowly to obtain a CAS-blue agar medium.
CAS dye solution included: 1 mmol/L CAS, 4 mmol/L hexadecyl trimethyl ammonium bromide, and 0.1 mmol/L FeCl3.
PBS (pH 6.8) included: 2.427 g of Na2HPO4.12H2O, 0.5905 g of NaH2PO4.2H2O, 0.075 g of KH2PO4, 0.250 g of NH4Cl, 0.125 g of NaCl, and 100 mL of H2O. All the above solutions were prepared with deionized water. […]
The Fe-binding ability of xerucitrinin A was detected by using the CAS agar plate. […] The growth of Foc TR4 is inhibited by binding Fe.

For the next data set, the system named is spores of Foc TR4. In words: Effect on spore morphology of Foc TR4 in Gauze's Medium #1, observed under a scanning electron microscope. Type of data set: cell-based, Fusarium oxysporum f. sp. cubense tropical race 4. Here is the method: XcA (the compound xerucitrinin A) at a final concentration of 3 mM was added to Gauze's Medium #1, and the filtered spore suspension of Foc was added, with a final spore concentration of 1×10^7 spores/mL. The control treatment was implemented by treating with the same volume of sterile water. The spore suspension was cultured at 28° C. in the dark for 24 h. The spores of Foc were collected and fixed in a 2.5% (v/v) glutaraldehyde solution at 4° C. overnight. The fixed spores were rinsed twice with 0.1 mol/L PBS (pH 7.4), dehydrated gradiently with 30%, 50%, 70%, 80%, 90%, 95%, and 100% ethanol solutions for 20 min, dried and subjected to gold spraying. The spore morphology of Foc TR4 was observed under a scanning electron microscope.

Data set [2] concerns Brazilian banana seedlings. As to the kind of experiment: Effect on the growth of Brazilian banana seedlings in treated Gauze's Medium #1. The note with it: 3 mM in Gauze's Medium #1; 6 Brazilian banana seedlings per treatment. The format is in vivo. The protocol:
XcA was dissolved in ethanol. In order to investigate the effect of XcA on the growth of Brazilian banana, 3 mM XcA was added to Gauze's Medium #1. A volume of ethanol (CK) equal to the compound concentration was added to the control. A negative control was set up, and 200 μM 8-hydroxyquinoline (8HQ) was added to the Gauze's Medium #1. Then Brazilian banana seedlings were planted in a culture plate containing the above-mentioned treated medium. Each treatment had 6 replicates (6 Brazilian banana seedlings). The culture plate containing Brazilian banana seedlings was placed in a growth chamber to grow for 10 days to observe the effect on plant growth. Each treatment continued to grow for two months, during which an equal volume of sterile water was supplemented, and the plant height, root weight and seedling weight of each treatment were determined.

As to `Cc1c(O)c(C)c2c(c1O)CO[C@]1(C[C@H]3O[C@H](C)[C@@H](C)c4c(C)c(O)c(O)c(c43)O1)[C@H]2C` [xerucitrinin A], in data set [1], the “Fe-binding ability (siderophore zone around the Oxford cup)” value is on record as “a siderophore zone appeared around the Oxford cup”. The “spore morphology of Foc” value in the data set on spores of Foc TR4 is listed as “obvious crenation on the surface of the spores”. The “germination and growth of the spores of Foc” value in the data set on spores of Foc TR4 (3 mM in Gauze's Medium #1, 28° C. in the dark for 24 h) is “affect the germination and growth of the spores of Foc”. In addition, in data set [2], the “effect on the growth of banana seedlings compared with the control” value is recorded as “no adverse effect on the growth of banana seedlings”.

The values above are taken from US11825844B2, “Method for controlling Fusarium oxysporum f. sp. cubense tropical race 4” (GUANGXI UNIVERSITY, priority 2021, dated 2023).
